The first data set is described as follows: solvent given as SMILES. Conditions: in Brc1ccccc1.
Consider `CCCCCCCCCCCCCCCCOc1cc(C#Cc2ccc3ccccc3c2)c(OCCCCCCCCCCCCCCCC)cc1C#Cc1ccc(C=C(C#N)C#N)cc1`, for which the emission maximum is given as 582 nm.

The data set is the same for the next values; noted with them: in C1CCCCC1.
In the case of `c1ccc2c(c1)Cc1cc3c(cc1-2)Cc1ccccc1-3`, the emission maximum amounted to 340 nm.
`c1ccc(-c2nc3c(ccc4[nH]ccc43)o2)cc1` returned an emission maximum of 372 nm.
`CN(C)c1ccc(/C=C/c2nc3ccc(N(C)C)cc3oc2=O)cc1` came in with an emission maximum of 521 nm.
Same read-out and setting: as for `c1ccc2c(c1)Sc1ccccc1N2c1ccc2c(ccc3nc4ccc5cc(N6c7ccccc7Sc7ccccc76)ccc5c4nc32)c1`, the figure is 543 nm; as for `COC(=O)c1nc(Cl)c(-c2ccccc2)o1`, 344 nm.
Still for that read-out and setting: in the case of `Cc1cccc(Nc2ccccc2C(=O)O)c1C` it was 438 nm; in that of `C(#Cc1cnc(C#Cc2ccccc2)nc1)c1ccccc1`, 425 nm; in that of `CCCCCCCCCCCCCCCCOc1cc(C#Cc2ccc3ccccc3c2)c(OCCCCCCCCCCCCCCCC)cc1C#Cc1ccc(C=C(C#N)C#N)cc1`, 484 nm.
As for `COC(=O)c1noc(-c2ccccc2)c1Br`, the emission maximum was determined as 344 nm.
The same measure, in the same setting: in the case of `Cc1cc(C)c(B(c2ccc(N3c4ccccc4Oc4ccccc43)cc2)c2c(C)cc(C)cc2C)c(C)c1` it was 475.13 nm.

The data set is the same for the next values; noted with them: in C1CCOC1.
`N#Cc1ccc(-c2ccc(C3=CCCCC3)s2)s1` yielded an emission maximum of 441 nm.
Same read-out and setting: in the case of `C[Si](C)(C)c1ccc(-c2ccc(-c3ccc(-c4ccc(-c5ccc([Si](C)(C)C)cc5)s4)c4nsnc34)s2)cc1` it was 620 nm; in that of `Cc1cccc(Nc2ccccc2C(=O)O)c1C`, 438 nm; in that of `CCCCCCCCCCCCCCCCOc1cc(C#Cc2ccc3ccccc3c2)c(OCCCCCCCCCCCCCCCC)cc1C#Cc1ccc(C=C(C#N)C#N)cc1`, 602 nm.
On the same count and under the same terms, in the case of `N#CC(C#N)=C(/C=C/c1cn(-c2ccccc2)nc1-c1ccccc1)c1ccccc1` it was 459 nm; in that of `CCCCCCCCCCCCCCCCn1c(-c2cc(-c3nc4ccccc4n3CCCCCCCCCCCCCCCC)cc(-c3nc4ccccc4n3CCCCCCCCCCCCCCCC)c2)nc2ccccc21`, 363 nm.
Take `Cc1cc(C)c(B(c2ccc(N3c4ccccc4Oc4ccccc43)cc2)c2c(C)cc(C)cc2C)c(C)c1`: the emission maximum turned out to be 602.56 nm.
On the same count and under the same terms, as for `COc1ccc(C(=Cc2ccc(/C=C(\C#N)c3ccccc3)cc2)c2ccc(OC)cc2)cc1`, the figure is 510 nm.

Still in this data set, the particulars now being: in C1COCCO1.
For the molecule `c1ccc(-c2nc(-c3ccc(-c4ccc(-c5nc(-c6ccccc6)c(-c6ccccc6)o5)cc4)cc3)oc2-c2ccccc2)cc1`, the emission maximum is listed as 428 nm.
With `c1ccc(-c2nc3c(ccc4[nH]ccc43)o2)cc1`, the emission maximum was 409 nm.
On to `CN(C)c1ccc(/C=C/c2nc3ccc(N(C)C)cc3oc2=O)cc1`, for which the emission maximum amounted to 581 nm.
On the same count and under the same terms, as for `Cc1cccc(Nc2ccccc2C(=O)O)c1C`, the figure is 437 nm; as for `CCCCCCCCCCCCCCCCOc1cc(C#Cc2ccc3ccccc3c2)c(OCCCCCCCCCCCCCCCC)cc1C#Cc1ccc(C=C(C#N)C#N)cc1`, 554 nm.
The molecule `N#CC(C#N)=C(/C=C/c1cn(-c2ccccc2)nc1-c1ccccc1)c1ccccc1` registered an emission maximum of 461 nm.
On the same count and under the same terms, as for `COC(=O)c1nc2cnc(N)nc2n1Cc1ccccc1`, the figure is 386 nm; as for `COC(=O)c1ccc(/C=C2\N=C(c3ccc(OC)c(OC)c3)OC2=O)cc1`, 474 nm.

Still in this data set, the particulars now being: in CC1CCCO1.
As to `Cn1c2nc(=O)[nH]c(=O)c-2nc2ccccc21`, the emission maximum was determined as 489 nm.

Still in this data set, the particulars now being: in CC#N.
`COc1ccc(-c2cc(-c3ccc(C)cc3)nc3c(C#N)c(N4CCCC4)nc(N)c23)cc1`: the emission maximum is on record as 521 nm.
Same read-out and setting: in the case of `c1ccc(-c2nc3c(ccc4[nH]ccc43)o2)cc1` it was 427 nm; in that of `N#Cc1ccc(-c2ccc(C3=CCCCC3)s2)s1`, 448 nm.
`CN(C)c1ccc(/C=C/c2nc3ccc(N(C)C)cc3oc2=O)cc1` displayed an emission maximum of 650 nm.
Turning to `Cc1nnc(-c2cc(-n3c4ccccc4c4ccccc43)c(-n3c4ccccc4c4ccccc43)cc2-c2nnc(C)o2)o1`, the emission maximum is given as 504.62 nm.
Same read-out and setting: in the case of `N#Cc1ccc(N/N=C/c2ccc3ccccc3c2O)cc1` it was 446 nm; in that of `Cc1cccc(Nc2ccccc2C(=O)O)c1C`, 398 nm; in that of `Cc1cc2c(ccc3c(C)[n+](C)c(C)cc32)c(C)[n+]1C`, 424 nm.
Same read-out and setting: in the case of `COC(=O)c1nc2cnc(N)nc2n1Cc1ccccc1` it was 388 nm.

Still in this data set, the particulars now being: in CC(C)=O.
For the molecule `COc1ccc(-c2cc(-c3ccc(C)cc3)nc3c(C#N)c(N4CCCC4)nc(N)c23)cc1`, the emission maximum stood at 517 nm.
For the molecule `CN(C)c1ccc(/C=C/c2nc3ccc(N(C)C)cc3oc2=O)cc1`, the emission maximum turned out to be 626 nm.

Still in this data set, the particulars now being: in CC(C)O.
`COc1ccc(-c2cc(-c3ccc(C)cc3)nc3c(C#N)c(N4CCCC4)nc(N)c23)cc1` returned an emission maximum of 511 nm.

The same data set, now with this note: in CC(O)CO.
Turning to `CN(C)c1ccc(/C=C/c2nc3ccc(N(C)C)cc3oc2=O)cc1`, the emission maximum amounted to 649.5 nm.

The data set is the same for the next values; noted with them: in CCCCCC.
`N#Cc1ccc(-c2ccc(C3=CCCCC3)s2)s1`: the emission maximum is on record as 427 nm.
The same measure, in the same setting: in the case of `N#Cc1ccc(N/N=C/c2ccc3ccccc3c2O)cc1` it was 415 nm; in that of `CCCCCCCCCCCCCCCCOc1cc(C#Cc2ccc3ccccc3c2)c(OCCCCCCCCCCCCCCCC)cc1C#Cc1ccc(C=C(C#N)C#N)cc1`, 480 nm.

Still in this data set, the particulars now being: in CCCCCCC.
Turning to `CN(C)c1ccc(/C=C/c2nc3ccc(N(C)C)cc3oc2=O)cc1`, the emission maximum was 519 nm.

Still in this data set, the particulars now being: in CCCCCCCCO
For the molecule `CCCCCCCCCCCCCCCCOc1cc(C#Cc2ccc3ccccc3c2)c(OCCCCCCCCCCCCCCCC)cc1C#Cc1ccc(C=C(C#N)C#N)cc1`, the emission maximum is on record as 596 nm.

The same data set, now with this note: in CCCCOCCCC
`CCCCCCCCCCCCCCCCOc1cc(C#Cc2ccc3ccccc3c2)c(OCCCCCCCCCCCCCCCC)cc1C#Cc1ccc(C=C(C#N)C#N)cc1` gave an emission maximum of 524 nm.

Staying with this data set, now noted: in CCO.
For `N#Cc1ccc(-c2ccc(C3=CCCCC3)s2)s1`, the emission maximum is 436 nm.
`CN(C)c1ccc(/C=C/c2nc3ccc(N(C)C)cc3oc2=O)cc1` gave an emission maximum of 666 nm.
Still for that read-out and setting: as for `CCOC(=O)c1ccccc1-c1c2ccc(=[N+](CC)CC)cc-2oc2c1c(=O)oc1cc(N(CC)CC)ccc12`, the figure is 642 nm.
Still for that read-out and setting: in the case of `N#CC(C#N)=C(/C=C/c1cn(-c2ccccc2)nc1-c1ccccc1)c1ccccc1` it was 497 nm.

The same data set, now with this note: in CCOC(C)=O.
As for `CN(C)c1ccc(/C=C/c2nc3ccc(N(C)C)cc3oc2=O)cc1`, the emission maximum was 587 nm.
On the same count and under the same terms, in the case of `Cc1cccc(Nc2ccccc2C(=O)O)c1C` it was 439 nm; in that of `CCn1c(-c2ccc(OC)cc2)c(-c2ccc3ccccc3c2)c(-c2ccc3ccccc3c2)c1-c1ccc(OC)cc1`, 404 nm; in that of `CCCCCCCCCCCCCCCCOc1cc(C#Cc2ccc3ccccc3c2)c(OCCCCCCCCCCCCCCCC)cc1C#Cc1ccc(C=C(C#N)C#N)cc1`, 590 nm.
`N#CC(C#N)=C(/C=C/c1cn(-c2ccccc2)nc1-c1ccccc1)c1ccccc1` had an emission maximum of 487 nm.
In turn, `CCn1c2ccccc2c2c(C#N)c3c(ccc4c3cnn4C)nc21` had an emission maximum of 476 nm.

The data set is the same for the next values; noted with them: in CCOCC.
Turning to `CCCCCCCCCCCCCCCCOc1cc(C#Cc2ccc3ccccc3c2)c(OCCCCCCCCCCCCCCCC)cc1C#Cc1ccc(C=C(C#N)C#N)cc1`, the emission maximum is 550 nm.

Still in this data set, the particulars now being: in CN(C)C=O.
In turn, `CN(C)c1ccc(/C=C/c2nc3ccc(N(C)C)cc3oc2=O)cc1` registered an emission maximum of 650 nm.
The same measure, in the same setting: as for `Cc1cccc(Nc2ccccc2C(=O)O)c1C`, the figure is 385 nm; as for `N#CC(C#N)=C(/C=C/c1cn(-c2ccccc2)nc1-c1ccccc1)c1ccccc1`, 504 nm.
